# Key:
# Assay in all cases: relative viability (nuclei count vs DMSO), 5 days (fraction); higher = more cells survive
# Vemurafenib + Tozasertib = compound: CCCS(=O)(=O)Nc1ccc(F)c(C(=O)c2c[nH]c3ncc(-c4ccc(Cl)cc4)cc23)c1F [Vemurafenib] + Cc1cc(Nc2cc(N3CCN(C)CC3)nc(Sc3ccc(NC(=O)C4CC4)cc3)n2)n[nH]1 [Tozasertib] (partner 0.1 µM)
# Procedure, shortened: (§1)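 For relative viability, nuclei counts in treated wells were divided by those in vehicle wells. Lung cancer cell lines had been pin-tool dosed in 1536-well plates the day after seeding and cultured for 5 days, then fixed and stained in one step (final 0.05% Triton X-100, 1% formaldehyde, 1 ug/ml Hoechst) and imaged at 4×. Doses were one drug alone or a fixed anchor-drug dose plus five library-drug doses (not always all listed) in √10 steps, and values are duplicate-plate medians.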
# Alpelisib + Trametinib = compound: Cc1nc(NC(=O)N2CCC[C@H]2C(N)=O)sc1-c1ccnc(C(C)(C)C(F)(F)F)c1 [Alpelisib] + CC(=O)Nc1cccc(-n2c(=O)n(C3CC3)c(=O)c3c(Nc4ccc(I)cc4F)n(C)c(=O)c(C)c32)c1 [Trametinib] (partner 0.02 µM)
# Procedure, shortened: as §1
# Vemurafenib + Foretinib = compound: CCCS(=O)(=O)Nc1ccc(F)c(C(=O)c2c[nH]c3ncc(-c4ccc(Cl)cc4)cc23)c1F [Vemurafenib] + COc1cc2c(Oc3ccc(NC(=O)C4(C(=O)Nc5ccc(F)cc5)CC4)cc3F)ccnc2cc1OCCCN1CCOCC1 [Foretinib] (partner 0.25 µM)
# Procedure, shortened: as §1
# OSI-027 + Bortezomib = compound: COc1cccc2cc(-c3nc([C@H]4CC[C@H](C(=O)O)CC4)n4ncnc(N)c34)[nH]c12 [OSI-027] + CC(C)C[C@H](NC(=O)[C@H](Cc1ccccc1)NC(=O)c1cnccn1)B(O)O [Bortezomib] (partner 0.002 µM)
# Procedure, shortened: as §1
Cell Line,relative viability (Vemurafenib + Tozasertib; first compound 0.03162 µM),relative viability (Vemurafenib + Tozasertib; first compound 0.1 µM),relative viability (Vemurafenib + Tozasertib; first compound 0.3162 µM),relative viability (Vemurafenib + Tozasertib; first compound 1 µM),relative viability (Alpelisib + Trametinib; first compound 0.04 µM),relative viability (Alpelisib + Trametinib; first compound 0.1265 µM),relative viability (Alpelisib + Trametinib; first compound 0.4 µM),relative viability (Alpelisib + Trametinib; first compound 1.265 µM),relative viability (Alpelisib + Trametinib; first compound 4 µM),relative viability (Vemurafenib + Foretinib; first compound 0.03162 µM),relative viability (Vemurafenib + Foretinib; first compound 0.1 µM),relative viability (Vemurafenib + Foretinib; first compound 0.3162 µM),relative viability (Vemurafenib + Foretinib; first compound 1 µM),relative viability (OSI-027 + Bortezomib; first compound 0.01 µM),relative viability (OSI-027 + Bortezomib; first compound 0.03162 µM),relative viability (OSI-027 + Bortezomib; first compound 0.1 µM),relative viability (OSI-027 + Bortezomib; first compound 0.3162 µM),relative viability (OSI-027 + Bortezomib; first compound 1 µM)
201T,0.95,0.915,0.925,0.975,0.7,0.723,0.716,0.645,0.586,0.984,1,1.06,1.1,1.14,1.15,1.07,1.12,1.1
A549,–,–,–,–,–,–,–,–,–,0.945,0.872,0.986,0.919,–,–,–,–,–
A-427,0.194,0.203,0.238,0.227,0.717,0.624,0.681,0.484,0.501,1.01,0.951,1.06,1.18,1.13,0.965,0.967,0.803,0.578
ABC-1,0.151,0.174,0.181,0.202,–,–,–,–,–,1.05,1.16,1.19,1.05,0.284,0.366,0.331,0.405,0.27
BEN,0.515,0.52,–,0.426,0.909,1.17,1.17,0.863,1.03,0.534,0.575,–,0.621,0.653,0.83,0.488,0.379,0.389
CAL-12T,0.31,0.289,0.346,0.26,0.371,0.259,0.378,0.266,0.193,1.15,0.828,1.33,1.09,0.814,1.02,0.713,0.754,0.729
COR-L23,0.14,0.202,0.181,0.143,0.534,0.484,0.579,0.378,0.353,0.864,0.92,0.854,0.957,1.16,0.923,1.07,1.13,0.298
COR-L 105,0.394,–,–,0.433,0.422,0.458,0.493,0.37,0.447,1.04,–,–,0.978,0.682,0.716,0.779,0.572,0.428
Calu-6,–,–,–,–,–,–,–,–,–,0.841,0.855,0.885,0.757,1.34,0.956,1,0.906,0.896
ChaGo-K-1,0.22,0.195,0.257,0.204,0.725,0.963,0.856,0.756,0.586,0.885,0.938,0.85,0.901,0.987,1.17,0.554,0.838,0.762
EBC-1,–,–,–,–,–,–,–,–,–,0.108,0.0915,0.104,0.11,0.497,0.557,0.515,0.53,0.375
EKVX,0.351,–,0.383,0.326,0.306,0.334,0.27,0.341,0.249,0.617,–,0.745,0.703,1.03,0.942,1.11,0.972,0.649
EMC-BAC-2,0.303,0.28,0.212,0.237,0.818,–,0.892,0.529,0.599,1.06,0.862,0.832,1.03,1.07,1.08,0.988,0.872,0.568
EPLC-272H,0.277,0.106,0.281,0.182,0.268,0.255,0.315,0.238,0.231,0.614,0.435,0.873,0.685,0.871,0.978,0.764,0.849,0.688
H3255,0.603,–,0.644,0.619,0.649,0.541,0.642,0.422,0.391,0.945,–,0.827,0.96,0.825,0.761,0.619,0.545,0.534
HARA,0.0946,0.0784,0.138,0.12,0.633,0.732,0.529,0.257,0.265,0.858,0.634,0.945,0.559,1.12,1.1,1.15,0.979,0.67
HCC-15,0.375,0.4,0.389,0.253,0.354,0.37,0.366,0.248,0.211,0.941,1.09,–,1.05,1.07,0.988,1,1.01,0.71
HCC-44,0.829,0.917,–,0.763,1.05,1.12,1.03,0.849,0.81,–,–,–,–,0.929,1,0.874,0.838,0.413
HCC-78,0.405,0.316,0.507,0.468,0.578,0.779,0.816,0.458,0.53,0.59,0.476,0.7,0.552,0.611,0.428,0.454,0.344,0.35
HCC-366,0.0795,0.0611,0.0563,0.0677,0.337,0.289,0.233,0.138,0.13,0.988,0.922,1.01,1,1.18,1.2,1.03,1.07,0.733

Cell Line,relative viability (Vemurafenib + Tozasertib; first compound 0.03162 µM),relative viability (Vemurafenib + Tozasertib; first compound 0.1 µM),relative viability (Vemurafenib + Tozasertib; first compound 0.3162 µM),relative viability (Vemurafenib + Tozasertib; first compound 1 µM),relative viability (Alpelisib + Trametinib; first compound 0.04 µM),relative viability (Alpelisib + Trametinib; first compound 0.1265 µM),relative viability (Alpelisib + Trametinib; first compound 0.4 µM),relative viability (Alpelisib + Trametinib; first compound 1.265 µM),relative viability (Alpelisib + Trametinib; first compound 4 µM),relative viability (Vemurafenib + Foretinib; first compound 0.03162 µM),relative viability (Vemurafenib + Foretinib; first compound 0.1 µM),relative viability (Vemurafenib + Foretinib; first compound 0.3162 µM),relative viability (Vemurafenib + Foretinib; first compound 1 µM),relative viability (OSI-027 + Bortezomib; first compound 0.01 µM),relative viability (OSI-027 + Bortezomib; first compound 0.03162 µM),relative viability (OSI-027 + Bortezomib; first compound 0.1 µM),relative viability (OSI-027 + Bortezomib; first compound 0.3162 µM),relative viability (OSI-027 + Bortezomib; first compound 1 µM)
HCC-827,0.397,–,0.42,0.41,0.547,0.504,0.492,0.401,0.33,0.911,–,1.12,1.04,0.973,1.07,1.06,1.12,1.05
HOP-62,0.418,0.372,0.332,0.389,0.353,0.376,0.434,0.384,0.384,1.06,1.08,0.916,1.05,0.679,0.726,0.377,0.65,0.609
IA-LM,–,–,–,–,–,–,–,–,–,1.16,1.26,1.08,0.981,0.736,0.765,0.438,0.21,0.113
LK-2,0.158,0.177,0.187,0.155,0.633,0.829,0.738,0.384,0.365,1.37,0.913,1.09,0.915,–,–,–,–,–
NCI-H358,0.122,0.107,0.107,0.111,0.138,0.118,0.128,0.11,0.1,0.638,0.494,0.886,0.858,–,–,–,–,–
NCI-H522,0.609,0.471,0.592,0.631,0.673,0.756,0.683,0.681,0.542,–,–,–,–,–,–,–,–,–
NCI-H1299,–,–,–,–,–,–,–,–,–,1.05,1.06,1,1.09,1.09,1.03,1.06,1.08,1.1
NCI-H1395,0.722,0.815,–,0.779,1.07,1,1.13,0.817,0.878,1.02,0.976,–,1.01,–,–,–,–,–
NCI-H1563,–,–,–,–,–,–,–,–,–,0.859,0.976,0.93,0.935,0.822,0.872,0.781,0.741,0.722
NCI-H1623,0.409,–,0.452,0.41,–,–,–,–,–,0.896,–,1.03,0.768,–,–,–,–,–
NCI-H1648,0.489,–,0.962,0.477,0.489,0.496,0.472,0.296,0.245,–,–,–,–,–,–,–,–,–
NCI-H1703,–,–,–,–,–,–,–,–,–,0.358,0.307,0.329,0.374,0.361,0.302,0.238,0.233,0.187
NCI-H1792,–,–,–,–,0.271,0.383,0.467,0.324,0.314,–,–,–,–,1.03,0.688,0.858,0.899,0.212
NCI-H1793,0.288,–,0.323,0.264,0.424,0.289,0.536,0.406,0.39,0.789,–,0.709,0.922,–,–,–,–,–
NCI-H1944,0.268,0.201,0.274,0.256,0.354,0.425,0.4,0.313,0.275,0.868,0.614,0.879,0.837,–,–,–,–,–
NCI-H2170,0.637,0.617,0.751,0.679,0.91,0.857,0.921,0.666,0.549,0.907,0.858,1,1.02,–,–,–,–,–
NCI-H2342,0.477,0.478,0.629,0.417,0.754,0.854,0.671,0.604,0.67,1.14,0.943,1.05,0.942,–,–,–,–,–
SK-MES-1,0.831,0.915,0.829,0.751,0.59,0.523,0.534,0.334,0.385,0.91,0.461,0.879,0.795,–,–,–,–,–
SW 900,0.455,0.557,0.585,0.435,0.733,–,1.11,0.761,0.745,1.11,0.693,0.801,0.924,–,–,–,–,–

# — the supplement of paper PMC10307832
